Measured values taken from US20160206631A1, “OXYSTEROLS THAT ACTIVATE LIVER X RECEPTOR SIGNALING AND INHIBIT HEDGEHOG SIGNALING” (THE REGENTS OF THE UNIVERSITY OF CALIFORNIA, priority 2010, published 2016).

Key:
LXR [1] = assay: ABCA1 (LXR target gene) expression by Q-RT-PCR in M2-10B4 bone marrow stromal cells; settings: for fold induction at 2 µM: M210B4, 48 h, read-out: ABCA1 gene expression, Fold Induction ± SD; for LXR signaling activation: bone marrow stromal cells
Procedure: This was measured by the ability of these molecules to induce the expression of LXR-target genes, including ABCA1, in M2-10B4 bone marrow stromal cells (MSC) after 48 hours of treatment (Table 1).

Hedgehog signaling = assay: CAPAN-1 conditioned-medium-induced Hh target gene expression (Ptch1, HHIP, Gli1) in C3H10T1/2 cells; type: cell-based; settings: C3H10T1/2 cells treated with CAPAN-1 CM
Procedure: Next, cells were treated with DMEM containing 5% […] or CAPAN-1 CM in the presence or absence of TO, Oxy16, or Cyc. After 48 hours, RNA was extracted and analyzed by Q-RT-PCR for the expression of Hh target genes Ptch1, HHIP, and Gli1 and normalized to GAPDH expression.
As noted above, Hh signaling appears to play an important role in the initiation and progression of pancreatic cancer (26), and the inhibition of HE signaling using small molecule antagonists inhibits pancreatic cancer cells from growing in vitro and in vivo (50). […] Subsequently, Hh signaling in stromal cells provides a permissive milieu for tumor cells to grow. […] In this Example, we examine this possibility using an in vitro model system in which Hh signaling is induced in C3H10T1/2 embryonic fibroblasts by conditioned-medium (CM) from CAPAN-1 human pancreatic cancer cells.
In order to assess the functional activity of Hh proteins produced by CAPAN-1 cells, we examined the ability of CM to induce Hh target gene expression in C3H10T1/2 embryonic fibroblasts.

[2] = system: human pancreatic cancer cells; assay: Clonogenic growth of human pancreatic cancer cells in vitro; type: cell-based
LXR [3] = assay: LXR target gene expression by Q-RT-PCR in Saos-2 osteosarcoma cells; type: cell-based, human; settings: Saos-2 cells (FIG. 2, 72 hours for TO)
From the text: Data from a representative experiment are reported as the Data from a representative experiment are reported as the mean of triplicate determinations±SD relative to the expression level of LXRα (p<0.001 for control vs. both concentrations of TO for ABCA1 and SREBP1c mRNA).
Culturing the cells in varying serum (FBS) concentrations from 1% to 10% had no effect on LXRs or LXR target gene expression levels at baseline.

[4] = system: L3.6p1 human pancreatic cancer cells; assay: Clonogenic growth of L3.6p1 pancreatic cancer cells in methylcellulose; type: cell-based; settings: 72 hours treatment, colonies counted after 10 days
Procedure: (§1) Following treatment cells were harvested by washing cells twice with phosphate buffered saline (PBS) followed by enzymatically detaching with trypsin/EDTA. Cells were collected then washed twice with PBS. Cells were counted then resuspended in 500 uL of media. The volume of cells required for 2,000 cells from the control group was removed from each group then mixed with methylcellulose (1.2%) containing 30% fetal bovine serum, 1% bovine serum albumin, 10^-4 M 2-mercaptoethanol, and 2 mM L-glutamine. Cells were plated in low-attachment 6 well plates (1 ml/well), each group being plated in triplicate. Following 10 days of incubation, tumor cell colonies consisting of >40 cells were counted using an inverted microscope. Results are presented as the percentage of colonies from each treatment group compared to the control group (Table 2).

[5] = system: U2OS human osteosarcoma cells; assay: Anchorage-independent clonogenic growth of U2OS cells; type: cell-based; settings: 1 μM, 72 hours, colonies after 10 days (FIG. 4)
Procedure: (§2) Next, cells were harvested and examined for clonogenic growth in non-adherent plates after 10 days of culturing. Data from a representative of two separate experiments are reported as the relative number of colonies formed by cells treated with LXR ligands relative to cells treated with control vehicle (% of control).
(§3) We examined whether LXR activation inhibits the clonogenic growth of human osteosarcoma cells using an anchorage-independent cell growth assay. Saos-2 and U2OS cells were seeded in standard tissue culture plates and treated for 72 hours with control vehicle or 1 μM of TO, 22R, or Oxy16. Following treatments with LXR ligands, the drugs were removed and the cells harvested and plated in methylcellulose media in non-adherent plates (Costar) and the cell colonies formed after 10 days were counted.

REH human ALL cells = assay: Clonogenic growth of REH ALL cells; type: cell-based
Procedure: as §1
A similar experiment to that shown above for pancreatic cancer cells was performed using the human ALL cells, REH (Table 3).

LXR [6] = assay: LXR target gene expression in human pancreatic cancer cells
[7] = system: Saos-2 human osteosarcoma cells; assay: Anchorage-independent clonogenic growth of Saos-2 cells; type: cell-based; settings: Saos-2; 1 μM, 72 hours, colonies after 10 days (FIG. 4)
Procedure: as §2, §3

[8] = system: human primary multiple myeloma cells derived from patients; assay: Clonogenic growth of primary multiple myeloma cells from patients in methylcellulose; type: cell-based; settings: 1 μM, 96 hours, CD34+ and CD138+ depleted bone marrow mononuclear cells
[9] = system: NCI-H929 multiple myeloma cancer stem cells; assay: Percentage of cancer stem cells (CD138 negative, ALDH positive) in NCI-H929 cultures by flow cytometry; type: cell-based, human; settings: 1 μM, 96 hours (FIGS. 7, 8)
Procedure: NCI-H929 multiple myeloma cells were treated for 96 hours with control vehicle or 1 μM of each compound as shown. Next, percentage of CD138negative cells in the same number of starting cells from each group was determined by flow cytometry.
NCI-H929 multiple myeloma cells were treated for 96 hours with control vehicle or 1 μM of each compound as shown. Next, percentage of ALDH+ cells in the same number of starting cells from each group was determined by flow cytometry.

[10] = system: human NCI-H929 multiple myeloma cell line; assay: Clonogenic growth of NCI-H929 multiple myeloma cells; type: cell-based; settings: 1 μM, 96 hours, colonies after 10 days (FIG. 6)
Procedure: NCI-11929 multiple myeloma cells were treated for 96 hours with control vehicle or 1 μM of each compound as shown. Next, drugs were removed and cells were plated in methylcellulose. Clonogenic growth of colonies determined after 10 days. Data are reported as percentage of colony number normalized to control group.
In order to examine the effect of LXR activation on the clonogenic growth of multiple myeloma cells, the human NCI-H929 multiple myeloma cell line was used.

For `C[C@]12CC[C@H]3[C@@H](CC=C4C[C@@H](O)CC[C@@]43C)[C@@H]1CC[C@@H]2[C@@](C)(O)CCc1cccnc1` [Oxy43, (3S,8S,9S,10R,13S,14S,17S)-17-((S)-2-Hydroxy-4-(yridine-3-yl)butan-2-yl)-10,13-dimethyl-2,3,4,7,8,940,11,12,13,14,15,16,17-tetradecahydro-1H-cyclopenta-[a]-phenanthren-3-ol], the fold induction at 2 µM (LXR [1]) was 2.5 ± 0.8 and the LXR signaling activation (LXR [1]) was “Activate LXR Signaling”.

In the case of `CC(C)CC[C@H](O)[C@@H](C)[C@H]1CC[C@H]2[C@@H]3CC=C4C[C@@H](O)CC[C@]4(C)[C@H]3CC[C@]12C` [22(S)-hydroxycholesterol], the “CM-induced Hh signaling” value (Hedgehog signaling) is reported as “did not have similar inhibitory effects”.

For `CC(C)CC[C@@H](O)[C@@H](C)[C@H]1CC[C@H]2[C@@H]3CC=C4C[C@@H](O)CC[C@]4(C)[C@H]3CC[C@]12C` [Oxy 22R, 22R-hydroxycholesterol, reference compound], the clonogenic growth [2] was “significantly inhibit”, the “CM-induced Hh signaling” value (Hedgehog signaling) was “inhibited” and the “expression of LXR target genes ABCA1 and SREBP1c” value (LXR [3]) was “significant expression”. The “Normalized Colony # (% of control)” value ([4]; 5 μM) was 63 % of control, the “Raw Colony #” value ([4]; 5 μM) was 153 and the “Normalized Colony # (% of control)” value ([4]; 10 μM) was 59 % of control. The “Raw Colony #” value ([4]; 10 μM) was 142, the clonogenic growth [5] was “significant inhibition” and the “Normalized Colony # (% of control)” value (REH human ALL cells; 0.1 μM) was 36 % of control. For the same molecule, the “Raw Colony #” value (REH human ALL cells; 0.1 μM) was 33, the “Normalized Colony # (% of control)” value (REH human ALL cells; 0.5 μM) was 2 % of control and the “Raw Colony #” value (REH human ALL cells; 0.5 μM) was 2. For the same molecule, the “expression of LXR target genes” value (LXR [6]) was “induce the expression of LXR target genes” and the clonogenic growth [7] was “significant inhibition”.

With `CC(C)CCC[C@](C)(O)[C@H]1CC[C@H]2[C@@H]3CC=C4C[C@@H](O)CC[C@]4(C)[C@H]3CC[C@@]21C` [Oxy 20S, 20(S)-hydroxycholesterol, reference compound] the “expression of LXR target genes ABCA1 and SREBP1c” value (LXR [3]) was “significant expression”.

In the case of `CC(C)CCC[C@](C)(O)C1CCC2C3CC=C4C=CCC[C@]4(C)C3CC[C@@]21C` (stereo partly drawn) [Oxy37, (2S)-2-((10R,13S)-10,13-Dimethyl-2,7,8,9,10,11,12,13,14,15,16,17-dodecahydro-1H-cyclopenta[a]phenanthren-17-yl)-6-methylheptan-2-ol], the fold induction at 2 µM (LXR [1]) is reported as 2 ± 0.1 and the LXR signaling activation (LXR [1]) is reported as “Activate LXR Signaling”.

In the case of `CC(C)CCC[C@](C)(O)C1CCC2C3CC=C4C[C@H](O)CC[C@]4(C)C3CC[C@@]21C` (stereo partly drawn) [Oxy35, (3R,10R,13S)-17-((S)-2-Hydroxy-6-methylheptan-2-yl)-10,13-dimethyl-2,3,4,7,8,9, 10,11,12,13,14,15,16,17-tetradecahydro-1H-cyclopenta[a]phenanthren-3-ol], the fold induction at 2 µM (LXR [1]) is reported as 4 ± 1.2 and the LXR signaling activation (LXR [1]) is reported as “Activate LXR Signaling”.

In the case of `CC(C)CCC[C@](C)(O)C1CCC2C3CC=C4CC(=O)CC[C@]4(C)C3CC[C@@]21C` (stereo partly drawn) [Oxy30, (10R,13S)-17-((S)-2-Hydroxy-6-methylheptan-2-yl)-10,13-dimethyl-4,7,8,9,10,11,12, 13,14,15,16,17-dodecahydro-1H-cyclopenta[a]phenanthren-3(2H)-one], the fold induction at 2 µM (LXR [1]) is reported as 2.8 ± 0.8, the LXR signaling activation (LXR [1]) is reported as “Activate LXR Signaling” and the “Normalized Colony # (% of control)” value ([4]; 5 μM) is reported as 39 % of control. For the same molecule, the “Raw Colony #” value ([4]; 5 μM) was 96, the “Normalized Colony # (% of control)” value ([4]; 10 μM) was 41 % of control and the “Raw Colony #” value ([4]; 10 μM) was 100.

In the case of `C[C@]12CC[C@H]3[C@@H](CC=C4C[C@@H](O)CC[C@@]43C)[C@@H]1CC[C@@H]2[C@@](C)(O)CCc1ccc(Cl)cc1` [Oxy47, (3S,8S,9S,10R,13S,14S,17S)-17-((S)-4-(4-Chlorophenyl)-2-hydroxybutan-2-yl)-10,13-dimethyl-2,3,4,7,8,9,10,11,12,13,14,15,16,17-tetradecahydro-1H-cyclopenta-[a]-phenanthren-3-ol], the fold induction at 2 µM (LXR [1]) is reported as 1.8 ± 0.5 and the LXR signaling activation (LXR [1]) is reported as “Activate LXR Signaling”.

For `CC(C)CCC[C@](C)(O)C1CCC2C3CCC4=CC(=O)CC[C@]4(C)C3CC[C@@]21C` (stereo partly drawn) [Oxy31, (10R,13S)-17-((S)-2-Hydroxy-6-methylheptan-2-yl)-10,13-dimethyl-6,7,8,9,10,11,12, 13,14,15,16,17-dodecahydro-1H-cyclopenta[a]phenanthren-3(2H)-one], the fold induction at 2 µM (LXR [1]) was 2 ± 0.3 and the LXR signaling activation (LXR [1]) was “Activate LXR Signaling”.

For `C[C@]12CC[C@H]3[C@@H](CC=C4C[C@@H](O)CC[C@@]43C)[C@@H]1CC[C@@H]2[C@@](C)(O)CCCc1ccccc1` [Oxy22], the fold induction at 2 µM (LXR [1]) was 2.2 ± 0.4 and the LXR signaling activation (LXR [1]) was “Activate LXR Signaling”.

With `C[C@]12CC[C@H]3[C@@H](CC=C4C[C@@H](O)CC[C@@]43C)[C@@H]1CC[C@@H]2[C@@](C)(O)CCc1ccc(F)cc1` [Oxy45, (3S,8S,9S,10R,13S,14S,17S)-17-((S)-4-(4-Fluorophenyl)-2-hydroxybutan-2-yl)-10,13-dimethyl-2,3,4,7,8,9,10,11,12,13,14,15,16,17-tetradecahydro-1H-cyclopenta-M-phenanthren-3-ol] the fold induction at 2 µM (LXR [1]) was 3.5 ± 0.5, the LXR signaling activation (LXR [1]) was “Activate LXR Signaling” and the “colony formation (% of control)” value ([8]; Specimen # 1) was 46 % of control. For the same molecule, the “colony formation (% of control)” value ([8]; Specimen # 2) was 25 % of control, the “Normalized Colony # (% of control)” value (REH human ALL cells; 0.1 μM) was 43 % of control and the “Raw Colony #” value (REH human ALL cells; 0.1 μM) was 40. The “Normalized Colony # (% of control)” value (REH human ALL cells; 0.5 μM) was 0.5 % of control, the “Raw Colony #” value (REH human ALL cells; 0.5 μM) was 0.5 and the “percentage of cancer stem cells (CD138 negative and ALDH positive cells)” value [9] was “significantly reduced”. For the same molecule, the clonogenic growth [10] was “inhibited clonogenic growth”.
